Data as given in patent US20240293318A1, “CLEAVABLE LINKER-CONTAINING IONIZABLE LIPIDS AND LIPID CARRIERS FOR THERAPEUTIC COMPOSITIONS” (Flagship Pioneering Innovations VII, LLC, priority 2023, published 2024).

Assays:
C57BL/6 female mice = experiment: In vivo hEPO expression of hEPO mRNA LNPs, serum ELISA; details: LNP 50:38.5:10:1.5, N:P 6, 0.2 mg/kg hEPO mRNA, tail vein injection, blood serum 6 h post-administration
Description: In this example, messenger RNA molecules encoding hEPO proteins were formulated in lipid nanoparticles for delivery in vivo. The lipid nanoparticle (LNP) formulations comprised of a lipid composition of ionizable lipid: helper lipid: cholesterol. DMG-PEG2k at 50:10:38.5:1.5 mol %. The lipid mixture in ethanol was mixed with hEPO mRNA in RNA acidifying buffer (10 mM citrate, pH 4) at an ionizable-lipid-nitrogen-to-RNA-phosphate ratio (N:P) of 6 using a microfluidic device (Precision NanoSystems, Inc.) at a combined flow rate of 10 mL/min (7.5 mL/min for aqueous buffer, RNA and 2.5 mL/min for ethanol, lipid mix). The resulting particles were neutralized by buffer exchange into Dulbecco's phosphate buffer solution via PD-10 desalting column. The neutralized particles were concentrated using 100 kDa AMICON® Ultra centrifugal filters and sterile filtered using 0.2 um syringe filters. Samples were then characterized and diluted as needed (3 replicates).
The in vivo studies were performed in C57BL/6 female mice at 6 to 8 weeks weighing in at approximately 20 g. The LNPs formulated with different ionizable lipids at 0.2 mg/kg of hEPO mRNA were administered by tail vein injection and animals were euthanized at 6 h post-administration for blood serum sample collection. The hEPO levels from the samples were analyzed and cross-compared by enzyme-linked immunoassay (ELISA) according to manufacturer's protocol. The hEPO expression levels for each of the LNPs was compared to a control LNP comprising SM102 (DC Chemicals Cat. No. DC52025). (FIG. 1).

[1] = Apparent pKa of LNPs (TNS assay); assay type: physicochemical; details: LNP, hEPO mRNA, Lipid:Cholesterol:DSPC:PEG-2k 50:38.5:10:1.5, N:P 6
Description: (§1) Various lipid nanoparticle compositions comprising a nucleic acid payload are characterized by a variety of methods. For example, dynamic light scattering (DLS) is used to determine particle sizes (Wyatt Dynapro Platereader 111). In addition, instruments such as the Zetasizer Nano ZS (Malvern Instruments Ltd) are used to measure multiple physical properties of a lipid nanoparticle composition, such as particle size, polydispersity index (PDI), and zeta potential. Fluorescence-based assays are used to determine the efficiencies of nucleic acid encapsulation in the lipid nanoparticles. Fluorescence-based assays are used to determine the “apparent pKa” of the lipid nanoparticles. Both fluorescence assays are evaluated on a Varioskanlux plate reader (ThermoScientific).
The apparent pKa of lipid nanoparticle composition is measured using a 6-(p-Toluidino)-2-naphthalenesulfonic acid (TNS) assay. Briefly, lipid nanoparticles (10 uL of approximately 0.5 mg mRNA/mL) and TNS probe (40 uL of 1 mM stock) are added to 750 uL of TNS buffer (25 mM citric acid, 20 mM sodium phosphate, 150 mM NaCl, and 20 mM ammonium acetate), at a pH ranging from 2 to 10. 20 uL of each sample are added to 80 uL of buffer at each pH in a 96-well plate. The plate is incubated for 10 minutes, and the fluorescence signal is measured by means of a spectrofluorometer (Varioskanlux, ThermoScientific) with excitation/emission settings of λex=321 nm, and λem=445 nm. The apparent pKa of the nanoparticle composition is determined by deriving the pH at which 50% of the pH 2 fluorescent signal is present. All datapoints are normalized to the fluorescent signal at pH 2.

[2] = Encapsulation efficiency, fluorescence based Ribogreen assay; assay type: physicochemical; details: LNP, hEPO mRNA, Lipid:Cholesterol:DSPC:PEG-2k 50:38.5:10:1.5, N:P 6
Description: For lipid nanoparticle formulations containing an RNA, a QUANTIT™ RIBOGREEN® RNA assay (Invitrogen Corporation) is used to evaluate the encapsulation of RNA within the lipid nanoparticle formulation.
The samples are diluted to ˜10 ug/ml in TE buffer. In a 96 well plate, 50 ul of the diluted sample is added to 50 uL TE buffer in duplicates and 20 uL of diluted sample is added to 80 uL Triton X buffer (2% triton in TE buffer) in duplicates. The plate is incubated for 10 minutes at room temperature. Next, RIBOGREEN® is diluted 1:200 in TE BUFFER, and 100 uL is added to each sample well. The fluorescence intensity is measured using a fluorescence plate reader (e.g., Varioskanlux, ThermoScientific) at an excitation wavelength of about 480 nm and an emission wavelength of about 520 nm. The encapsulation efficiency can be determined by using the percentage ratio of non-encapsulated RNA (TE sample) over the total RNA (TX sample), then subtracting from 100 to find the percentage of encapsulated RNA amount.
(§2) LNPs were characterized by dynamic light scattering (DLS) measurement for measuring its hydrodynamic radius and polydispersity index (PDI). Encapsulation efficiency (EE %) and total RNA concentration were quantitated using a fluorescence based Ribogreen assay.

[3] = Zeta potential assay of LNPs; assay type: physicochemical; details: LNP, hEPO mRNA, Lipid:Cholesterol:DSPC:PEG-2k 50:38.5:10:1.5, N:P 6
Description: as §1
A Zetasizer Nano ZS (Malvern Instruments Ltd) is used to determine the zeta potential of the nanoparticle compositions. Briefly, a 5 uL aliquot of an approximately 0.5 mg mRNA/mL sample is diluted into 800 uL 0.1×PBS. This sample is then transferred to a disposable conducting cuvette and the zeta potential is measured.

[4] = LNP size and polydispersity index by dynamic light scattering (DLS); assay type: physicochemical; details: hEPO mRNA, Lipid:Cholesterol:DSPC:PEG-2k 50:38.5:10:1.5, N:P 6
Description: as §1
After formulation and processing of the lipid nanoparticle compositions, the Z-average size of lipid nanoparticle composition are assayed by dynamic light scattering (DLS) (e.g., using a Wyatt Dynapro Platereader III or Malvern Zetasizer ZS). Briefly, an aliquot of 2 uL of the processed nanoparticle composition mixture (at an RNA concentration of approximately 0.5 mg/mL) is diluted into 50 uL phosphate buffered saline (0.1×PBS) and loaded into a 384 well plate. The sample is then analyzed to determine nanoparticle size.
as §2

Row | pKa [1] | EE [2] [%] | Zeta [3] [mV] | PDI [4] | Size [4] [nm] | SMILES | hEPO (C57BL/6 female mice) [ng/mL]
1 | 5.8 | 99.9 | −15.3 | 0.159 | 62.7 | CCCCCCCCC(CC)OC(=O)CCCCCCCN(CCCCCCCC(=O)OC(CCCCCCCC)CCCCCCCC)CCCNc1cc(N)n[nH]1 (stereo not drawn) [Lipid 22] | 78.29
2 | 7 | 96.7 | −3.1 | 0.106 | 78.70 | CCCCCCCCCCCOC(=O)CCCCCN(CCO)CCCCCCCC(=O)OC(CCCCCCCC)CCCCCCCC [SM-102, heptadecan-9-yl 8-((2-hydroxyethyl)(6-oxo-6-(undecyloxy)hexyl)amino)octanoate, reference compound] | 2457.05
